# Biological target: human CXCR3-A receptor (Homo sapiens (Human), UniProt P49682)
# Experiment: 125I-CXCL10 competition radioligand binding assay
# Conditions: displacement of 125I-CXCL10 from membranes of CHO cells expressing human recombinant CXCR3-A
# Procedure: IC50 values were determined for the test compounds and used to explore the structure-activity relationships (SAR). […] This cell line was registered in Sanofi-Aventis cell line bank. […] Cell suspension was diluted with PBS and cells were collected with centrifugation at 230 g for 10 minutes at 10° C. with a Juan centrifuge. […] The supernatant was carefully collected and centrifuged at 100,000×g for 60 min at 4° with a Beckman Avanti J30 centrifuge. […] Protein concentration was determined with Bio-Rad protein assay (Cat No 500-0006). Membrane aliquots were stored at -80° C. […] The composition of the binding assay buffer was determined in a course of detailed optimization procedure. […] Binding reaction was initiated by adding of membranes (10-20 μg proteins, approximately 5×10^5 cell equivalents) to the reaction mixture. After 60 minutes of incubation at 25° C. the reaction was terminated by rapid filtration over GF/B glass fiber filters that were pre-soaked with 0.5% polyethyleneimine (Fluka Analytical, P3143) for 1 hour, using a Skatron cell harvester device. Filters then were washed with 8 ml of ice-cold wash buffer (modified binding buffer in which BSA was omitted and the concentration of NaCl was adjusted to 500 mM concentration). The radioactivity retained on the filters was measured by a Wizard 1470 Automatic Gamma counter. Test compounds were dissolved prior to the binding assay at a concentration of 10 mM in DMSO. Stock solutions were stored at -20° C. for not longer than 3 months. […] Before adding these solutions of test compound to the binding reaction mixture, an intermediate dilution procedure was applied, in which 30 μL of each solution sample was transferred into a dilution tube containing 970 μL of binding assay buffer. […] The IC50 values and Hill slopes for competition binding data were obtained using nonlinear four-parametric curve fitting method.
# human CXCR3-A receptor, sequence (P49682 whole entry): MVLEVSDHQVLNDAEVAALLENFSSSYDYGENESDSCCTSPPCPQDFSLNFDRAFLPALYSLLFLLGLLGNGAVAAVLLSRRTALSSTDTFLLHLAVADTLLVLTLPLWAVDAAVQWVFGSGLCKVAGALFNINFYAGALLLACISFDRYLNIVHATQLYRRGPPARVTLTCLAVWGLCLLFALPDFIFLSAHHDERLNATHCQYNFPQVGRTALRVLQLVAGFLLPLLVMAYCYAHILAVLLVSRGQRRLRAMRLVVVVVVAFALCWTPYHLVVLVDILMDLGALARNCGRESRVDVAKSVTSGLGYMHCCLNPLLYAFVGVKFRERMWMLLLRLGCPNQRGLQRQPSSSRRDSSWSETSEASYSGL
row,SMILES,IC50
1,"Cc1cc(CN(C[C@H]2CC[C@H](C(=O)O)CC2)C2CCc3cc(Cl)ccc32)ccc1OCCN1C(=O)CN(C)C1=O (stereo partly drawn) [Example 57, trans-4-[((5-Chloro-indan-1-yl)-{3-methyl-4-[2-(3-methyl-2,5-dioxo-imidazolidin-1-yl)-ethoxy]-benzyl}-amino)-methyl]-cyclohexanecarboxylic acid]",200 nM
2,"CCC(c1ccc(Cl)c(Cl)c1)N(Cc1ccc(OCCN2C(=O)CCC2=O)c(OC)c1)[C@H]1C[C@@H](C(=O)O)C1 (stereo partly drawn) [Example 141, cis-3-([1-(3,4-Dichloro-phenyl)-propyl]-{4-[2-(2,5-dioxo-pyrrolidin-1-yl)-ethoxy]-3-methoxy-benzyl}-amino)-cyclobutanecarboxylic acid]",200 nM
3,"COc1cc(CN(C[C@@H]2CC[C@H](C(=O)O)C2)[C@@H](C)c2ccc3c(c2)CCO3)ccc1OCCN1C(=O)CCC1=O [Example 106, (1S,3R)-3-[([(S)-1-(2,3-Dihydro-benzofuran-5-yl)-ethyl]-{4-[2-(2,5-dioxo-pyrrolidin-1-yl)-ethoxy]-3-methoxy-benzyl}-amino)-methyl]-cyclopentanecarboxylic acid]",144 nM
4,"COc1cc(CN(C[C@H]2CC[C@H](C(=O)O)CC2)C(C)c2ccc(C#N)cc2)ccc1OCCn1c(=O)ccn(C)c1=O (stereo partly drawn) [Example 62, trans-4-[([1-(4-Cyano-phenyl)-ethyl]-{3-methoxy-4-[2-(3-methyl-2,6-dioxo-3,6-dihydro-2H-pyrimidin-1-yl)-ethoxy]-benzyl}-amino)-methyl]-cyclohexanecarboxylic acid]",200 nM
5,"COc1cc(CN([C@H]2C[C@@H](C(=O)O)C2)[C@H](C)c2ccc3c(c2)CCC3)ccc1OCCn1c(=O)ccn(C)c1=O [Example 159, cis-3-(((R)-1-Indan-5-yl-ethyl)-{3-methoxy-4-[2-(3-methyl-2,6-dioxo-3,6-dihydro-2H-pyrimidin-1-yl)-ethoxy]-benzyl}-amino)-cyclobutanecarboxylic acid]",544 nM
6,"CCc1cc(CN(C(C)c2ccc(Cl)c(Cl)c2)[C@H]2C[C@@H](C(=O)O)C2)ccc1OCCN1C(=O)CCC1=O (stereo partly drawn) [Example 139, cis-3-([1-(3,4-Dichloro-phenyl)-ethyl]-{4-[2-(2,5-dioxo-pyrrolidin-1-yl)-ethoxy]-3-ethyl-benzyl}-amino)-cyclobutanecarboxylic acid]",1200 nM
7,"COc1cc(CN(C[C@H]2CC[C@H](C(=O)O)CC2)[C@@H](C)c2ccc(Cl)cc2)ccc1C#CCN1C(=O)CCC1=O [Example 55, trans-4-[([(S)-1-(4-Chloro-phenyl)-ethyl]-{4-[3-(2,5-dioxo-pyrrolidin-1-yl)-prop-1-ynyl]-3-methoxy-benzyl}-amino)-methyl]-cyclohexanecarboxylic acid]",6600 nM
8,"COc1cc(CN(C[C@H]2CC[C@H](C(=O)O)CC2)C2CCc3cc(Cl)ccc32)ccc1OCCN1C(=O)CSC1=O (stereo partly drawn) [Example 24, trans-4-[((5-Chloro-indan-1-yl)-{4-[2-(2,4-dioxo-thiazolidin-3-yl)-ethoxy]-3-methoxy-benzyl}-amino)-methyl]-cyclohexanecarboxylic acid]",58 nM
9,"Cc1cc(CN([C@H]2C[C@@H](C(=O)O)C2)[C@H](C)c2ccc(Cl)cc2)ccc1CCCN1C(=O)CCC1=O [Example 143, cis-3-([(R)-1-(4-Chloro-phenyl)-ethyl]-{4-[3-(2,5-dioxo-pyrrolidin-1-yl)-propyl]-3-methyl-benzyl}-amino)-cyclobutanecarboxylic acid]",3000 nM
10,"CCC(c1ccc2c(c1)CCO2)N(Cc1ccc(OCCN2C(=O)CCC2=O)c(OC)c1)C[C@H]1CC[C@H](C(=O)O)CC1 (stereo partly drawn) [Example 18, trans-4-[([1-(2,3-Dihydro-benzofuran-5-yl)-propyl]-{4-[2-(2,5-dioxo-pyrrolidin-1-yl)-ethoxy]-3-methoxy-benzyl}-amino)-methyl]-cyclohexanecarboxylic acid]",64 nM
11,"COc1cc(CN([C@H]2C[C@@H](C(=O)O)C2)[C@H](C)c2ccc(Cl)c(F)c2)ccc1OCCN1C(=O)CCC1=O [Example 150, cis-3-([(R)-1-(4-Chloro-3-fluoro-phenyl)-ethyl]-{4-[2-(2,5-dioxo-pyrrolidin-1-yl)-ethoxy]-3-methoxy-benzyl}-amino)-cyclobutanecarboxylic acid]",98 nM
12,Cc1cc([C@H](C)N(Cc2ccc(OCCN3C(=O)CCC3=O)c(C)c2)[C@H]2C[C@H](C(=O)O)C2)ccc1Cl [Example 130],5300 nM
13,"COc1cc(CN(C[C@H]2CC[C@H](C(=O)O)CC2)C(C)c2ccc3c(c2)CCO3)ccc1OCCN1C(=O)CSC1=O (stereo partly drawn) [Example 15, trans-4-[([1-(2,3-Dihydro-benzofuran-5-yl)-ethyl]-{4-[2-(2,4-dioxo-thiazolidin-3-yl)-ethoxy]-3-methoxy-benzyl}-amino)-methyl]-cyclohexanecarboxylic acid]",37 nM
14,"CCc1cc(CN([C@H]2C[C@@H](C(=O)O)C2)[C@H](C)c2ccc(Cl)c(F)c2)ccc1OCCN1C(=O)CCC1=O [Example 151, cis-3-([(R)-1-(4-Chloro-3-fluoro-phenyl)-ethyl]-{4-[2-(2,5-dioxo-pyrrolidin-1-yl)-ethoxy]-3-ethyl-benzyl}-amino)-cyclobutanecarboxylic acid]",457 nM
15,"COc1cc(CN(C[C@H]2CC[C@H](C(=O)O)CC2)[C@H]2CCc3cc(Cl)ccc32)ccc1OCCN1C(=O)C2CC2C1=O (stereo partly drawn) [Example 146, -4-[(((S)-5-Chloro-indan-1-yl)-{4-[2-(2,4-dioxo-3-aza-bicyclo[3.1.0]hex-3-yl)-ethoxy]-3-methoxy-benzyl}-amino)-methyl]-cyclohexanecarboxylic acid]",254 nM
16,"CCc1cc(CN(C[C@H]2CC[C@H](C(=O)O)CC2)C2CCc3cc(F)c(Cl)cc32)ccc1OCCN1C(=O)CCC1=O (stereo partly drawn) [Example 95, trans-4-[((6-Chloro-5-fluoro-indan-1-yl)-{4-[2-(2,5-dioxo-pyrrolidin-1-yl)-ethoxy]-3-ethyl-benzyl}-amino)-methyl]-cyclohexanecarboxylic acid]",4040 nM
17,"CCC(c1ccc2c(c1)CCO2)N(Cc1ccc(OCCN2C(=O)CN(C)C2=O)c(OC)c1)C[C@H]1CC[C@H](C(=O)O)CC1 (stereo partly drawn) [Example 28, trans-4-[([1-(2,3-Dihydro-benzofuran-5-yl)-propyl]-{3-methoxy-4-[2-(3-methyl-2,5-dioxo-imidazolidin-1-yl)-ethoxy]-benzyl}-amino)-methyl]-cyclohexanecarboxylic acid]",81 nM

# Next, values leading:
row,IC50,SMILES
1,107 nM,"COc1cc(CN(C[C@H]2CC[C@H](C(=O)O)CC2)C(C)c2ccc(C)cc2)ccc1OCCN1C(=O)CCC1=O (stereo partly drawn) [Example 84, trans-4-{[{4-[2-(2,5-Dioxo-pyrrolidin-1-yl)-ethoxy]-3-methoxy-benzyl}-(1-p-tolyl-ethyl)-amino]-methyl}-cyclohexanecarboxylic acid]"
2,19 nM,"COc1cc(CN(C[C@H]2CC[C@H](C(=O)O)CC2)[C@@H](C)c2ccc(Cl)cc2)ccc1SCCN1C(=O)CCC1=O [Example 87, trans-4-[([(S)-1-(4-Chloro-phenyl)-ethyl]-{4-[2-(2,5-dioxo-pyrrolidin-1-yl)-ethylsulfanyl]-3-methoxy-benzyl}-amino)-methyl]-cyclohexanecarboxylic acid]"
3,80 nM,"COc1cc(CN(C[C@H]2CC[C@H](C(=O)O)CC2)[C@H](C)c2ccc(Cl)c(C)c2)ccc1OCCN1C(=O)CCC1=O [Example 27, trans-4-[([(R)-1-(4-Chloro-3-methyl-phenyl)-ethyl]-{4-[2-(2,5-dioxo-pyrrolidin-1-yl)-ethoxy]-3-methoxy-benzyl}-amino)-methyl]-cyclohexanecarboxylic acid]"
4,220 nM,"CC(c1ccc(Cl)c(F)c1)N(Cc1ccc(OCCN2C(=O)CCC2=O)c(F)c1)C[C@H]1CC[C@H](C(=O)O)CC1 (stereo partly drawn) [Example 92, trans-4-[([1-(4-Chloro-3-fluoro-phenyl)-ethyl]-{4-[2-(2,5-dioxo-pyrrolidin-1-yl)-ethoxy]-3-fluoro-benzyl}-amino)-methyl]-cyclohexanecarboxylic acid]"
5,146 nM,"Cc1ccc(C(C)N(Cc2ccc(OCCN3C(=O)CCC3=O)c(C)c2)C[C@H]2CC[C@H](C(=O)O)CC2)cc1 (stereo partly drawn) [Example 83, trans-4-{[{4-[2-(2,5-Dioxo-pyrrolidin-1-yl)-ethoxy]-3-methyl-benzyl}-(1-p-tolyl-ethyl)-amino]-methyl}-cyclohexanecarboxylic acid]"
6,270 nM,"Cc1cc(CN(C[C@H]2CC[C@H](C(=O)O)CC2)C(C)c2ccc(Cl)c(Cl)c2)ccc1OCCN1C(=O)CCC1=O (stereo partly drawn) [Example 78, trans-4-[([1-(3,4-Dichloro-phenyl)-ethyl]-{4-[2-(2,5-dioxo-pyrrolidin-1-yl)-ethoxy]-3-methyl-benzyl}-amino)-methyl]-cyclohexanecarboxylic acid]"
7,22 nM,"COc1cc(CN(C[C@H]2CC[C@H](C(=O)O)CC2)[C@@H](C)c2ccc(Cl)cc2)ccc1OCCN1C(=O)CSC1=O [Example 34, trans-4-[([(S)-1-(4-Chloro-phenyl)-ethyl]-{4-[2-(2,4-dioxo-thiazolidin-3-yl)-ethoxy]-3-methoxy-benzyl}-amino)-methyl]-cyclohexanecarboxylic acid]"

# Source: patent US9073853B2, “Cycloalkane carboxylic acid derivatives as CXCR3 receptor antagonists” (Sanofi, priority 2011, dated 2015)
